Data set [1] concerns Phosphodiesterase I (EC 3.1.4.1) type VIII from Crotalus durissus terrificus venom. Put plainly: Stability towards snake venom phosphodiesterase (SVPD) 3′-exonuclease, HPLC. Particulars: for % remaining: SVPDE; for T½: degradation by SVPDE, disappearance of 12-mer (11-mer for CDU-modified oligos). It is filed as in vitro ADME. On the procedure: Resistance of dodeca (thymidine phosphates) containing CDU (19-24) against phosphodiesterase I (EC 3.1.4.1): To 100 mM Tris-HCl buffer, pH 8.9 (90 μL) containing 20 mM MgCl2, 0.1 A260 ODU of oligonucleotide 19-24 (5 μL), 1.5×10-3 unit (5 μL) of phosphodiesterase was added. A blank with no enzyme, and a control reaction with d(T)12 were assayed simultaneously. Reactions were maintained at 37° C. for 10 minutes and then 50 μL aliquots were analyzed by HPLC under conditions described above.
The replacement of all natural phosphodiester linkages within oligonucleotide chain by methylphosphonate ones is an example of modifications that ensure complete stability of the oligonucleotide towards exo- and endonucleases. To test the resistance of CDU-oligonucleotides towards 3′-exonucleolytic activity (hydrolysis of the oligonucleotide from 3′-end), snake venom phosphodiesterase (SVPD) from Crotalus durissus terrificus was used. It was discovered that these oligonucleotides are remarkably stable to 3′-exonucleases if the CDU residue is incorporated in the 3′- or both 3′- and 5′-end. The oligonucleotide bearing both 3′- and 5′-modifications (24) was also resistant to SVPD and calf spleen phosphodiesterase.
The half-life (T½) of 3′-CDU-, 3′,5′-CDU- and 3′CDU2-oligonucleotides were determined by kinetic study of their degradation by SVPDE (snake venom phosphodiesterase). Aliquots of enzymatic reaction (0, 5, 10, 20, 40, 80 and 240 minutes) were analyzed by HPLC. Calculations of half life time were based on the disappearance of 12-mer (or 11-mer in the case of CDU-modified oligos) after standardization with 2′-deoxycytidine used as internal standard.

A further data set deals with polyriboadenylic acid. The data set can be described thus: Melting temperature (Tm) of duplexes with polyriboadenylic acid. The data set is classed as binding. Particulars: polyriboadenylic acid as target; PIPES buffer at 120 mM NaCl.
Another data set concerns d(A)12. Put plainly: Melting temperature (Tm) of duplexes with d(A)12. It is filed as binding. Particulars: for Tm: d(A)12 as complementary strand, 1:1, PIPES buffer at 120 mM NaCl. On the procedure: Melting Temperature (Tm) Measurements. Samples for Tm measurements were prepared by the addition of concentrated stock solutions of the d(T)12 (18) or CDU modified d(T)12 (19-24) and d(A)12stock solution to 1.0 mL 10 mM 1,4-piperazine-bis-(ethane-sulfonic acid) (PIPES) buffer (pH 7.0) containing 100 mM NaCl, and 1 mM EDTA, in amounts to give a 1:1 ratio. Each strand was present at 40 μM. Molar extinction coefficients ε260 (per base) were calculated as following: 18: 8,150; d(A)12: 12,280; 19-24: 8,200. The samples were heated to 85° C. and cooled slowly to room temperature before melting. The insulated cell compartment of the UV spectrophotometer was continuously warmed from 0° C. to 85° C. at the rate 0.5° C. per minute. Samples were heated in quartz cuvettes fitted with a teflon stopper (1 cm path length). The absorption change at 260 nm was followed as a function of temperature, and Tm values were obtained from first derivative plots after the data were transferred to a Macintosh computer for visualization and analysis.

The next data set deals with YMDD motif of HIV-1 RT. Put plainly: In vitro site directed mutagenesis of HIV-1 reverse transcriptase gene, transformation into E. coli and sequencing. It is filed as cell-based. Particulars: sequencing of mutants; for amino acid change: YMDD motif. The text has this:
Example 6 describes the in vivo mutation of the RT gene within the YMDD motif, incorporated into a proper vector in E. coli cells. The mutagenic oligonucleotide DNA target region is the conserved YMDD motif (nucleotides 5′ 2678 to 3′ 2689) of HIV-1 RT. The mutagenic oligonucleotides used were
The procedure for in vitro site directed mutagenesis used in this experiment was a modification of that used in the Altered Sites mutagenesis Kit #Q6210 (Promega Corp., Madison, Wis.). Briefly, oligonucleotides, 5′-AATACATGGA(CDU)GATTTGTAT-3′ (SEQ ID NO:1) and 5′-AATACATGG(CDU)(CDU)GATTTGTAT-3′ (SEQ ID NO:2), and a control, located on the putative catalytic active site for HIV-1 RT (5′-2676 to 3′-2696) were 5′ phosphorylated using T4 polynucleotide kinase. The reaction was terminated by heating to 70° C. for 10 min. The mutagenesis annealing reaction was performed by adding 0.05 pmol of pHIVALT-1 ssDNA, 0.25 pmol ampicillin repair oligonucleotide (supplied in the kit), 1.25 pmol of the 5′ phosphorylated mutagenic oligo, and an annealing buffer supplied in the kit in a final volume of 20 μL. The control oligonucleotide reactions for this experiment were done separately along with an added reaction that contained ampicillin repair oligo but no mutagenic oligo 5′-AATACATGGA(CDU)GATTTGTAT-3′ (SEQ ID NO: 1) and 5′-AATACATGG(CDU)(CDU) GATTTGTAT-3′ (SEQ ID NO:2) and control unmodified. The reactions were then heated to 70° C. for 5 min and allowed to cool to room temperature over a 15-20 min period. The annealing reactions were placed on ice and the following reagents were added: 3 μL 10× synthesis buffer (supplied in kit), 1 μL T4 DNA polymerase (10 U/μL ), 1 μL T4 DNA ligase (2 U/μL ), and 5 μL sterile dHO. The 30 μL reaction was incubated at 37° C. for 90 min to perform second strand synthesis and ligation. […]

Data set [2] concerns calf spleen phosphodiesterase. Put plainly: Resistance to calf spleen phosphodiesterase. The data set is classed as in vitro ADME. The conditions noted are these: in words.

“Also recorded” adds a separate entry of the source.

With “d(T)12 [Oligomer 18, reference compound]”, the “% remaining” value in data set [1] (time 0 min) is 100%; in data set [1] (time 5 min) it was 9.1%; in data set [1] (time 10 min) it was 2.6%. The same substance had a T½ in data set [1] of 0.5 min. The Tm (as a rule, the temperature at the midpoint of the melting transition) in the data set on polyriboadenylic acid was 30.0 °C; in the data set with d(A)12, 29.0 °C.

Take 5′d(T)CDUd(T)10 [Oligomer 20]: the Tm in the data set on polyriboadenylic acid turned out to be 25.7 °C; in the data set on d(A)12 it was 27.2 °C.

On to 5′d(T)9(CDU)2d(T) [Oligomer 23], for which the “% remaining” value amounted to 100% in data set [1] (time 0 min); 82.0% in data set [1] (time 5 min); 80.0% in data set [1] (time 20 min); 78.9% in data set [1] (time 40 min); 54.0% in data set [1] (time 80 min); 10.5% in data set [1] (time 240 min). For the same substance, the T½ in data set [1] came to 76.2 min. Besides, the figures for the Tm in the data set with polyriboadenylic acid and with d(A)12 were 10.0 °C and 15.3 °C, respectively.

Turning to “5′-AATACATGG(CDU)(CDU)GATTTGTAT-3′ [RL-2]”, in the data set on YMDD motif of HIV-1 RT, the amino acid change result was “YMDD to YRVD”.

Take 5′CDUd(T)9CDUd(T) [Oligomer 24]: in data set [2], the “resistance to calf spleen phosphodiesterase” value was “resistant”. In addition, the “% remaining” value worked out at 100% in data set [1] (time 0 min), 56.2% in data set [1] (time 5 min), 38.1% in data set [1] (time 10 min) and 14.8% in data set [1] (time 40 min). Also, in data set [1], the T½ was 5.06 min. Also, in data set [1] (in words), the “resistance towards 3′-exonucleolytic activity (SVPD)” value was “resistant”. For the same substance, the Tm came to 17.0 °C in the data set on polyriboadenylic acid and 20.0 °C in the data set with d(A)12.

Turning to 5′d(T)10CDUd(T) [Oligomer 22], the “% remaining” value in data set [1] (time 0 min) amounted to 100%; in data set [1] (time 5 min), 54.8%; in data set [1] (time 10 min) it was 44.0%; in data set [1] (time 20 min), 38.3%; in data set [1] (time 40 min) it was 23.2%; in data set [1] (time 80 min), 11.0%. The substance also showed a T½ in data set [1] of 6.7 min. Moreover, in the data set on d(A)12 (between oligonucleotides 20 and 22), the “difference in Tm” value is 7-8 °C. In the data set with d(A)12, the Tm worked out at 20.5 °C.

On to 5′d(T)6CDUd(T)5 [Oligomer 21], for which the Tm in the data set with d(A)12 turned out to be 15.2 °C.

5′CDUd(T)11 [Oligomer 19]: the results for the Tm in the data set on d(A)12 (listed as 19) and with d(A)12 (listed as CDU(dT)11) were 28.0 °C and 28.8 °C, respectively.

In the case of 5′-AATACATGGA(CDU)GATTTGTAT-3′ [RL-1], in the data set with YMDD motif of HIV-1 RT, the “clones in which the mutation occurred next to the base opposite to CDU on the complimentary strand” value was 60% and the amino acid change result is “YMDD to YMVD; also recorded: YMDD to YMGD”.

(Values after patent US6583122B2, “Nucleosides and oligonucleotides containing boron clusters” (Emory University, priority 1993, dated 2003).)
